≈ marks a conversion by molar mass, not a printed value. Where two headings read alike, the source gives them in different places.
Legend:
[1] = system: M. tuberculosis biofilm; assay: M. tuberculosis biofilm formation inhibition (crystal violet staining); assay type: cell-based, Mycobacterium tuberculosis; conditions: for overall activity against M. tuberculosis: biofilm inhibition, normal growth inhibition and antibiotic synergism assays, preliminary results
Protocol: FIG. 1A-D. Anti-M. tuberculosis biofilm activity of 6-treAz (6-azido-6-deoxy-D-trehalose). The effects of various concentrations of 6-treAz treatment on M. tuberculosis biofilms were monitored by crystal violet (CV) staining assay (A and B). […] The effect of 6-treAz on TreS mediated maltose production. Y-axis is the amount of maltose produced (D).
Planktonic growth and biofilm assays. Evaluation of planktonic growth and biofilm formation inhibition for M. smegmatis was carried out as previously reported for other trehalose analogues (Carbohydr. Res. 2017, 450, 60-66). Evaluation of planktonic growth and biofilm formation inhibition for M. tuberculosis was carried out as previously reported for 6-TreAz (Nat. Commun., 2019, 2928-2928).

[2] = system: M. smegmatis; conditions: cited from earlier work
[3] = system: M. smegmatis biofilm; assay: M. smegmatis biofilm formation inhibition; assay type: cell-based, Mycobacterium smegmatis
[4] = system: H37Rv lab strain (M. tuberculosis); assay type: cell-based, Mycobacterium tuberculosis; conditions: for IC95 2-treNH2: antibiotic in combination with 2-treNH2; for IC95 4-treNH2: antibiotic in combination with 4-treNH2; for IC95 6-treNH2: antibiotic in combination with 6-treNH2
[5] = system: M. tuberculosis; conditions: cited from earlier work
[6] = system: M. tuberculosis; assay: M. tuberculosis planktonic growth inhibition; assay type: cell-based, Mycobacterium tuberculosis
[7] = M. tuberculosis IC95 shift assay

Structure (SMILES): [N-]=[N+]=N[C@H]1[C@@H](O[C@H]2O[C@H](CO)[C@@H](O)[C@H](O)[C@H]2O)O[C@H](CO)[C@@H](O)[C@@H]1O [2-TreAz, (2R,3R,4S,5S,6R)-2-(((2R,3R,4R,5S,6R)-3-azido-4,5-dihydroxy-6-(hydroxymethyl)tetrahydro-2H-pyran-2-yl)oxy)-6-(hydroxymethyl)tetrahydro-2H-pyran-3,4,5-triol]
- overall activity against M. tuberculosis [1]: top candidate
- inhibition of M. smegmatis planktonic growth (previous research) [2]: exhibited planktonic growth inhibition

Structure (SMILES): N[C@H]1[C@@H](O[C@H]2O[C@H](CO)[C@@H](O)[C@H](O)[C@H]2O)O[C@H](CO)[C@@H](O)[C@@H]1O [2-TreNH2, (2R,3R,4S,5S,6R)-2-(((2R,3R,4R,5S,6R)-3-amino-4,5-dihydroxy-6-(hydroxymethyl)tetrahydro-2H-pyran-2-yl)oxy)-6-(hydroxymethyl)tetrahydro-2H-pyran-3,4,5-triol]
- inhibition of M. tuberculosis biofilm formation [1]: inhibit
- inhibition of M. smegmatis biofilm formation [3]: inhibit
- antimycobacterial synergy with TB antibiotics ([4]; H37Rv, INH, RIF or BDQ, […]): antimicrobial synergy against H37Rv level similar to that of ΔtreS
- effect of co-treatment on IC95 values of isoniazid (INH) or rifampicin (RIF) [4, 7]: significantly reduced
- reduction of IC95 value of bedaquiline (BDQ) by co-treatment [4, 7]: not
- inhibition of M. tuberculosis planktonic growth (previous research) [5]: exhibited inhibition

Structure (SMILES): [N-]=[N+]=N[C@@H]1[C@@H](O[C@H]2O[C@H](CO)[C@@H](O)[C@H](O)[C@H]2O)O[C@H](CO)[C@@H](O)[C@@H]1O [2-epi-TreAz, (2R,3R,4S,5S,6R)-2-(((2R,3S,4R,5S,6R)-3-azido-4,5-dihydroxy-6-(hydroxymethyl)tetrahydro-2H-pyran-2-yl)oxy)-6-(hydroxymethyl)tetrahydro-2H-pyran-3,4,5-triol]
- inhibition of M. tuberculosis biofilm formation [1]: can inhibit
- inhibition of M. tuberculosis biofilm formation ([1]; at 1 mM): completely blocks
- overall activity against M. tuberculosis [1]: most potent
- inhibition of M. tuberculosis biofilm formation ([1]; listed as Epi-2-TreAz): completely inhibits
- inhibition of M. tuberculosis planktonic growth [6]: can inhibit
- inhibition of M. tuberculosis planktonic growth ([6]; at 1 mM): completely blocks
- inhibition of M. tuberculosis planktonic growth ([6]; listed as Epi-2-TreAz): completely inhibits
- inhibition of M. smegmatis biofilm formation [3]: selectively inhibits
- inhibition of M. smegmatis biofilm formation ([3]; at 1 mM): selectively blocks

Structure (SMILES): N[C@@H]1[C@@H](O[C@H]2O[C@H](CO)[C@@H](O)[C@H](O)[C@H]2O)O[C@H](CO)[C@@H](O)[C@@H]1O [2-epi-TreNH2, (2R,3R,4S,5S,6R)-2-(((2R,3S,4R,5S,6R)-3-amino-4,5-dihydroxy-6-(hydroxymethyl)tetrahydro-2H-pyran-2-yl)oxy)-6-(hydroxymethyl)tetrahydro-2H-pyran-3,4,5-triol]
- inhibition of M. tuberculosis biofilm formation [1]: do not
- inhibition of M. tuberculosis planktonic growth [6]: no inhibitory effects
- inhibition of M. smegmatis biofilm formation [3]: no inhibitory effects

Structure (SMILES): [N-]=[N+]=N[C@@H]1[C@@H](O)[C@@H](O[C@H]2O[C@H](CO)[C@@H](O)[C@H](O)[C@H]2O)O[C@H](CO)[C@H]1O [3-TreAz, (2R,3R,4S,5S,6R)-2-(((2R,3R,4S,5S,6R)-4-azido-3,5-dihydroxy-6-(hydroxymethyl)tetrahydro-2H-pyran-2-yl)oxy)-6-(hydroxymethyl)tetrahydro-2H-pyran-3,4,5-triol]
- inhibition of M. smegmatis planktonic growth (previous research) [2]: did not exhibit inhibition

Structure (SMILES): N[C@@H]1[C@@H](O)[C@@H](O[C@H]2O[C@H](CO)[C@@H](O)[C@H](O)[C@H]2O)O[C@H](CO)[C@H]1O [3-TreNH2, (2R,3R,4S,5S,6R)-2-(((2R,3R,4S,5S,6R)-4-amino-3,5-dihydroxy-6-(hydroxymethyl)tetrahydro-2H-pyran-2-yl)oxy)-6-(hydroxymethyl)tetrahydro-2H-pyran-3,4,5-triol]
- inhibition of M. tuberculosis biofilm formation [1]: moderate inhibitor

Structure (SMILES): [N-]=[N+]=N[C@H]1[C@H](O)[C@@H](O)[C@@H](O[C@H]2O[C@H](CO)[C@@H](O)[C@H](O)[C@H]2O)O[C@@H]1CO [4-TreAz, (2R,3R,4S,5S,6R)-2-(((2R,3R,4S,5S,6S)-5-azido-3,4-dihydroxy-6-(hydroxymethyl)tetrahydro-2H-pyran-2-yl)oxy)-6-(hydroxymethyl)tetrahydro-2H-pyran-3,4,5-triol]
- overall activity against M. tuberculosis [1]: did not show activity
- overall activity against M. smegmatis ([3]; biofilm inhibition, normal growth inhibition and antibiotic synergism assays): did not show activity
- inhibition of M. smegmatis planktonic growth (previous research) [2]: did not exhibit inhibition

Structure (SMILES): N[C@H]1[C@H](O)[C@@H](O)[C@@H](O[C@H]2O[C@H](CO)[C@@H](O)[C@H](O)[C@H]2O)O[C@@H]1CO [4-TreNH2, (2R,3R,4S,5S,6R)-2-(((2R,3R,4S,5S,6S)-5-amino-3,4-dihydroxy-6-(hydroxymethyl)tetrahydro-2H-pyran-2-yl)oxy)-6-(hydroxymethyl)tetrahydro-2H-pyran-3,4,5-triol]
- inhibition of M. tuberculosis biofilm formation [1]: inhibit
- inhibition of M. tuberculosis planktonic growth [6]: inhibits
- inhibition of M. smegmatis biofilm formation [3]: did not exhibit activity
- inhibition of M. smegmatis planktonic growth (previous research) [2]: did not exhibit inhibition

Structure (SMILES): [N-]=[N+]=N[C@@H]1[C@H](O)[C@@H](O)[C@@H](O[C@H]2O[C@H](CO)[C@@H](O)[C@H](O)[C@H]2O)O[C@@H]1CO [4-epi-TreAz, (2R,3R,4S,5S,6R)-2-(((2R,3R,4S,5R,6S)-5-azido-3,4-dihydroxy-6-(hydroxymethyl)tetrahydro-2H-pyran-2-yl)oxy)-6-(hydroxymethyl)tetrahydro-2H-pyran-3,4,5-triol]
- inhibition of M. tuberculosis biofilm formation [1]: do not
- inhibition of M. tuberculosis planktonic growth [6]: no inhibitory effects
- inhibition of M. smegmatis biofilm formation [3]: no inhibitory effects

Structure (SMILES): N[C@@H]1[C@H](O)[C@@H](O)[C@@H](O[C@H]2O[C@H](CO)[C@@H](O)[C@H](O)[C@H]2O)O[C@@H]1CO [4-epi-TreNH2, (2R,3R,4S,5S,6R)-2-(((2R,3R,4S,5R,6S)-5-amino-3,4-dihydroxy-6-(hydroxymethyl)tetrahydro-2H-pyran-2-yl)oxy)-6-(hydroxymethyl)tetrahydro-2H-pyran-3,4,5-triol]
- inhibition of M. tuberculosis biofilm formation [1]: do not
- inhibition of M. tuberculosis planktonic growth [6]: no inhibitory effects
- inhibition of M. smegmatis biofilm formation [3]: no inhibitory effects

Structure (SMILES): NC[C@H]1O[C@H](O[C@H]2O[C@H](CO)[C@@H](O)[C@H](O)[C@H]2O)[C@H](O)[C@@H](O)[C@@H]1O [6-TreNH2, (2R,3S,4S,5R,6R)-2-(aminomethyl)-6-(((2R,3R,4S,5S,6R)-3,4,5-trihydroxy-6-(hydroxymethyl)tetrahydro-2H-pyran-2-yl)oxy)tetrahydro-2H-pyran-3,4,5-triol]
- inhibition of M. tuberculosis biofilm formation [1]: no inhibitory effect
- inhibition of M. tuberculosis planktonic growth [6]: no inhibitory effect
- inhibition of M. tuberculosis planktonic growth (previous research) [5]: did not exhibit inhibition

Structure (SMILES): COc1nc2ccc(Br)cc2cc1[C@@H](c1ccccc1)[C@@](O)(CCN(C)C)c1cccc2ccccc12 [BDQ, bedaquiline]
- IC95 WT [4]: 0.59 mg/L (≈ 1.06 µM)
- IC95 2-treNH2 ([4]; H37Rv): 0.78 mg/L
- IC95 4-treNH2 ([4]; H37Rv): 0.39 mg/L
- IC95 6-treNH2 ([4]; H37Rv): 0.57 mg/L

Structure (SMILES): NNC(=O)c1ccncc1 [INH, isoniazid]
- IC95 WT [4]: 0.28 mg/L (≈ 2.04 µM)
- IC95 2-treNH2 ([4]; H37Rv): 0.21 mg/L
- IC95 4-treNH2 ([4]; H37Rv): 0.44 mg/L
- IC95 6-treNH2 ([4]; H37Rv): 0.33 mg/L

Structure (SMILES): CO[C@H]1/C=C/O[C@@]2(C)Oc3c(C)c(O)c4c(O)c(c(/C=N/N5CCN(C)CC5)c(O)c4c3C2=O)NC(=O)/C(C)=C\C=C\[C@H](C)[C@H](O)[C@@H](C)[C@@H](O)[C@@H](C)[C@H](OC(C)=O)[C@@H]1C [RIF, rifampicin]
- IC95 WT [4]: 0.18 mg/L (≈ 0.219 µM)
- IC95 2-treNH2 ([4]; H37Rv): 0.09 mg/L
- IC95 4-treNH2 ([4]; H37Rv): 0.14 mg/L
- IC95 6-treNH2 ([4]; H37Rv): 0.24 mg/L
